For one compound, IC50 results are on record in BindingDB's records for patent US20240226107 (Simcere Zaiming Pharmaceutical Co., 2024).

Each structure is given as a SMILES string.

Common to all, as to assay: Assay for Inhibition of Compounds Provided in the Present Application on CYP Enzymes
One data set addresses Cytochrome P450 2C19 (Homo sapiens, UniProt P33261). As for the experimental part: (§1) Typical substrate metabolic responses of five major human CYP subtypes (CYP1A2, CYP2C9, CYP2C19, CYP2D6, CYP3A4) were evaluated using 150-donor pooled human liver microsomes (purchased from Corning, Cat. No.: 452117). The influence of different concentrations of each compound to be tested on metabolic responses of phenacetin (CYP1A2), diclofenac sodium (CYP2C9), S-mephenytoin (CYP2C19), bufuralol hydrochloride (CYP2D6), and midazolam (CYP3A4) was determined by liquid chromatography-mass spectrometry (LC/MS/MS). The reaction system (200 μL) (100 mmol/L phosphate buffer, pH 7.4, containing DMSO, acetonitrile and methanol at a volume ratio of 0.3%:0.6%:0.1%) of 30 μM phenacetin, 10 μM diclofenac sodium, 35 μM S-mephenytoin, 5 μM bufuralol hydrochloride, 3 μM midazolam, 1 mM reduced nicotinamide adenine dinucleotide phosphate (NADPH), the compound to be tested (at concentrations of 0.1, 0.3, 1, 3, 10, 30 μmol/L, respectively), or positive compound or blank control, with pooled human liver microsomes (0.2 mg/mL) was incubated at 37° C. for 5 min. Then 200 μL of acetonitrile solution containing 3% formic acid and 40 nM internal standard verapamil was added and centrifuged at 4000 rpm for 50 min. The mixture was cooled on ice for 20 min and centrifuged at 4000 rpm for 20 min to precipitate the protein. Then 200 μL of supernatant was analyzed by LC-MS/MS.The peak area was calculated from the chromatogram.

The target of another data set is T1, Cytochrome P450 1A2 (Homo sapiens, UniProt P05177).
T1 sequence (P05177 whole entry): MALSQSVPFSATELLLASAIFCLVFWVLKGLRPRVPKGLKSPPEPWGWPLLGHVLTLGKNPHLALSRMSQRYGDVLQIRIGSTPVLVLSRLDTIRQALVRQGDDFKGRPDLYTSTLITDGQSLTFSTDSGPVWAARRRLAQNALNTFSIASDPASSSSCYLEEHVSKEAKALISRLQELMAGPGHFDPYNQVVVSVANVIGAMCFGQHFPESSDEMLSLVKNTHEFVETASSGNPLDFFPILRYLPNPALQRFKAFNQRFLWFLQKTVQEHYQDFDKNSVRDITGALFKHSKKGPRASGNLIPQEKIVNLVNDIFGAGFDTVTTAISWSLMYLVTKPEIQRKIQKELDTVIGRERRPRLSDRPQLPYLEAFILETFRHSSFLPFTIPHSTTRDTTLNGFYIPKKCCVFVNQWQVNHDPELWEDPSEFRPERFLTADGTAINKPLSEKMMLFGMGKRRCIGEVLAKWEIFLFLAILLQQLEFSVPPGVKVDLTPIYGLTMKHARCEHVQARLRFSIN
As for the experimental part:
as §1

Another data set deals with Cytochrome P450 2C9 (Homo sapiens, UniProt P11712). As for the experimental part: as §1
Sequence of Cytochrome P450 2C9 (P11712 whole entry): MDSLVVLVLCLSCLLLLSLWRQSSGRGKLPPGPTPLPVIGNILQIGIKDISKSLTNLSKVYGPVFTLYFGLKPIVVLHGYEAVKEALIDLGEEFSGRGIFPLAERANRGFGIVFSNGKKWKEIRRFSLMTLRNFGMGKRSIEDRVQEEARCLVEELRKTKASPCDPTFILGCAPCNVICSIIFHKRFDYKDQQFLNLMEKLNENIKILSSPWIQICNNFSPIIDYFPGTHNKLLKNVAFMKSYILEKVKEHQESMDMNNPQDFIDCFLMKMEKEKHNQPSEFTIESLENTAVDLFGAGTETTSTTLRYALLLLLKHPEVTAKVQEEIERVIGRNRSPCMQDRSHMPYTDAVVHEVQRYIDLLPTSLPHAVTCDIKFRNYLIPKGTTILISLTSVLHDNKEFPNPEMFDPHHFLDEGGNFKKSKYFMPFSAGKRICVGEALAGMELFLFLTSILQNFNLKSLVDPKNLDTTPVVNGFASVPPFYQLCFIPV

Sequence of Cytochrome P450 2C19 (P33261 whole entry): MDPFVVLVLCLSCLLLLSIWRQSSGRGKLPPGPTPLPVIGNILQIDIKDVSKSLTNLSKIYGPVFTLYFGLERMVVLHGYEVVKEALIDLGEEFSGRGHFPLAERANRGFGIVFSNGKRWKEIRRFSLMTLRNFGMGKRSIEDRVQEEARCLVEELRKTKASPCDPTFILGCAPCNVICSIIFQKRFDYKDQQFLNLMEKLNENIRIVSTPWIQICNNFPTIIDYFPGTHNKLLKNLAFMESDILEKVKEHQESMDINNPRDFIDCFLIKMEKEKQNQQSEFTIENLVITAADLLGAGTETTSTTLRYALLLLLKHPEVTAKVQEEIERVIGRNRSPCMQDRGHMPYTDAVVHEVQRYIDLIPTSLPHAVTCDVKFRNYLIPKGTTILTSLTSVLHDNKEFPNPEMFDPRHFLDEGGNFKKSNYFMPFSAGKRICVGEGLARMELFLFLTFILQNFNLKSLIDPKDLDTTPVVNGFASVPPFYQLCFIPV

In the case of `COc1nccc(C2CC2)c1-c1ncc2c(n1)N(Cc1ccc(-c3nc(C(F)(F)F)cn3C)cc1)CC(=O)N2C` [US20240226107, Compound 11], the IC50 (commonly the concentration needed to halve the response being measured) is 17.1 µM against Cytochrome P450 2C19, above 30 µM against Cytochrome P450 1A2 and 28.9 µM against Cytochrome P450 2C9.
